Numbered stars: 1 amine (or outer) side, 2 acyl side, 3 side chain; on linkers, the order of the positions; unused ones are H or OH. Square brackets hold non-standard residues; d marks the D form. Side chains are listed from the residue outwards. Peptide text beside a SMILES is read from it. * marks the point of attachment. C20 diacid = O=C(O)CCCCCCCCCCCCCCCCCCC(=O)*; C18 diacid = O=C(O)CCCCCCCCCCCCCCCCC(=O)*; γGlu = O=C(O)[C@H](CCC(=O)[*:2])N[*:1]; AEEA = NCCOCCOCC(=O)O; Aib = CC(C)(N)C(=O)O

T1 sequence (P47871 26-477): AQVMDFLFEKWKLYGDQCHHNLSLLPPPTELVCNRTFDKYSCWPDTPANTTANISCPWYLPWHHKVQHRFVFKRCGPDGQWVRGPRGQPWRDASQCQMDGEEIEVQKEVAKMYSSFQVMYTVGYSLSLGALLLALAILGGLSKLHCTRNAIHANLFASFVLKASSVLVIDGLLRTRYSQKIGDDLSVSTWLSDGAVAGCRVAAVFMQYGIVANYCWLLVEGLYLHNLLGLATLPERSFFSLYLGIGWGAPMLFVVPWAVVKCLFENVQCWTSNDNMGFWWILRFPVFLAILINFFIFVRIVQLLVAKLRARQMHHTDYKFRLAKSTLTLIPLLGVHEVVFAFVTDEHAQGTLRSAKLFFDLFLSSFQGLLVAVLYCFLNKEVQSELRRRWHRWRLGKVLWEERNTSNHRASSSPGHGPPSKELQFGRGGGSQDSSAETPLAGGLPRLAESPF

The assay has as its target T1, GC receptor (Homo sapiens, UniProt P47871).
T1 construct: expressed in transfected cells; host or cells: HEK293 cells
The experiment in a line: GC receptor mediated cAMP production in vitro (HEK293 cells transfected with GC receptor). The format is cell-based. The note with it: 20 min at 37° C., read-out: GCGR (nM EC50). An excerpt: The medium was removed, the cells were lysed, and cAMP values were detected referring to the detection method described for the assay kit.
With `CC[C@H](C)[C@H](NC(=O)[C@H](Cc1ccccc1)NC(=O)[C@H](CCC(=O)O)NC(=O)[C@H](CCCCNC(=O)COCCOCCNC(=O)COCCOCCNC(=O)CC[C@H](NC(=O)CCCCCCCCCCCCCCCCC(=O)O)C(=O)O)NC(=O)[C@H](C)NC(=O)[C@H](C)NC(=O)[C@H](CCCNC(=N)N)NC(=O)[C@H](CCC(=O)O)NC(=O)[C@H](CC(=O)O)NC(=O)[C@H](CC(C)C)NC(=O)[C@H](Cc1ccc(O)cc1)NC(=O)[C@H](CCCCN)NC(=O)[C@H](CO)NC(=O)[C@H](Cc1ccc(O)cc1)NC(=O)[C@H](CC(=O)O)NC(=O)[C@H](CO)NC(=O)[C@@H](NC(=O)[C@H](Cc1ccccc1)NC(=O)[C@@H](NC(=O)CNC(=O)[C@H](CCC(N)=O)NC(=O)[C@H](CO)NC(=O)[C@@H](N)Cc1c[nH]cn1)[C@@H](C)O)[C@@H](C)O)C(=O)N[C@@H](C)C(=O)N[C@@H](Cc1c[nH]c2ccccc12)C(=O)N[C@@H](CC(C)C)C(=O)N[C@@H](CCC(=O)O)C(=O)NCC(=O)NCC(=O)N1CCC[C@H]1C(=O)N[C@@H](CO)C(=O)N[C@@H](CO)C(=O)NCC(N)=O` [Compound 38] (H-HSQGTFTSDYSKYLDERAAK([AEEA-AEEA-γGlu-C18 diacid])EFIAWLEGGPSSG-NH2; N-terminus assumed), the EC50 was determined as 0.102 nM.
`CC[C@H](C)[C@H](NC(=O)[C@H](Cc1ccccc1)NC(=O)[C@H](CCC(=O)O)NC(=O)[C@H](CCCCNC(=O)COCCOCCNC(=O)COCCOCCNC(=O)CC[C@H](NC(=O)CCCCCCCCCCCCCCCCC(=O)O)C(=O)O)NC(=O)[C@H](C)NC(=O)[C@H](CCCCN)NC(=O)[C@H](CCCNC(=N)N)NC(=O)[C@H](CCC(=O)O)NC(=O)[C@H](CCC(=O)O)NC(=O)[C@H](CC(C)C)NC(=O)[C@H](Cc1ccc(O)cc1)NC(=O)[C@H](CCCCN)NC(=O)[C@H](CO)NC(=O)[C@H](Cc1ccc(O)cc1)NC(=O)[C@H](CC(=O)O)NC(=O)[C@H](CO)NC(=O)[C@@H](NC(=O)[C@H](Cc1ccccc1)NC(=O)[C@@H](NC(=O)CNC(=O)[C@H](CCC(N)=O)NC(=O)C(C)(C)NC(=O)[C@@H](N)Cc1c[nH]cn1)[C@@H](C)O)[C@@H](C)O)C(=O)N[C@@H](C)C(=O)N[C@@H](Cc1c[nH]c2ccccc12)C(=O)N[C@@H](CC(C)C)C(=O)N[C@@H](CCC(=O)O)C(=O)N[C@@H](C)C(=O)NCC(=O)NCC(=O)N1CCC[C@H]1C(=O)N[C@@H](CO)C(=O)N[C@@H](CO)C(=O)NCC(N)=O` [Compound 44] (H-H[Aib]QGTFTSDYSKYLEERKAK([AEEA-AEEA-γGlu-C18 diacid])EFIAWLEAGGPSSG-NH2; N-terminus assumed): the EC50 stood at 0.219 nM.
The same measure for `CC[C@H](C)[C@H](NC(=O)[C@H](Cc1ccccc1)NC(=O)[C@H](CCC(=O)O)NC(=O)[C@H](CCCCNC(=O)COCCOCCNC(=O)COCCOCCNC(=O)CC[C@H](NC(=O)CCCCCCCCCCCCCCCCC(=O)O)C(=O)O)NC(=O)[C@H](C)NC(=O)[C@H](CCCNC(=N)N)NC(=O)[C@H](CCCCN)NC(=O)[C@H](CCC(=O)O)NC(=O)[C@H](CC(=O)O)NC(=O)[C@H](CC(C)C)NC(=O)[C@H](Cc1ccc(O)cc1)NC(=O)[C@H](CCCCN)NC(=O)[C@H](CO)NC(=O)[C@H](Cc1ccc(O)cc1)NC(=O)[C@H](CC(=O)O)NC(=O)[C@H](CO)NC(=O)[C@@H](NC(=O)[C@H](Cc1ccccc1)NC(=O)[C@@H](NC(=O)CNC(=O)[C@H](CCC(N)=O)NC(=O)C(C)(C)NC(=O)[C@@H](N)Cc1c[nH]cn1)[C@@H](C)O)[C@@H](C)O)C(=O)N[C@@H](C)C(=O)N[C@@H](Cc1c[nH]c2ccccc12)C(=O)N[C@@H](CC(C)C)C(=O)N[C@@H](CCC(=O)O)C(=O)N[C@@H](C)C(=O)NCC(=O)NCC(=O)N1CCC[C@H]1C(=O)N[C@@H](CO)C(=O)N[C@@H](CO)C(=O)NCC(N)=O` [Compound 50] (H-H[Aib]QGTFTSDYSKYLDEKRAK([AEEA-AEEA-γGlu-C18 diacid])EFIAWLEAGGPSSG-NH2; N-terminus assumed): 0.048 nM; for `CC(C)C[C@H](NC(=O)[C@H](Cc1c[nH]c2ccccc12)NC(=O)[C@H](C)NC(=O)[C@@H](NC(=O)[C@H](Cc1ccccc1)NC(=O)[C@H](CCC(=O)O)NC(=O)[C@H](CCCCNC(=O)COCCOCCNC(=O)COCCOCCNC(=O)CC[C@H](NC(=O)CCCCCCCCCCCCCCCCC(=O)O)C(=O)O)NC(=O)[C@H](C)NC(=O)[C@H](CCCNC(=N)N)NC(=O)[C@H](CCCCN)NC(=O)[C@H](CCC(=O)O)NC(=O)[C@H](CCC(=O)O)NC(=O)[C@H](CC(C)C)NC(=O)[C@H](Cc1ccc(O)cc1)NC(=O)[C@H](CCCCN)NC(=O)[C@H](CO)NC(=O)[C@H](Cc1ccc(O)cc1)NC(=O)[C@H](CC(=O)O)NC(=O)[C@H](CO)NC(=O)[C@@H](NC(=O)[C@H](Cc1ccccc1)NC(=O)[C@@H](NC(=O)CNC(=O)[C@H](CCC(N)=O)NC(=O)C(C)(C)NC(=O)[C@@H](N)Cc1c[nH]cn1)[C@@H](C)O)[C@@H](C)O)C(C)C)C(=O)N[C@@H](CCC(=O)O)C(=O)N[C@@H](C)C(=O)NCC(=O)NCC(=O)N1CCC[C@H]1C(=O)N[C@@H](CO)C(=O)N[C@@H](CO)C(=O)NCC(N)=O` [Compound 53] (H-H[Aib]QGTFTSDYSKYLEEKRAK([AEEA-AEEA-γGlu-C18 diacid])EFVAWLEAGGPSSG-NH2; N-terminus assumed): 0.316 nM; for `CC[C@H](C)[C@H](NC(=O)[C@H](Cc1ccccc1)NC(=O)[C@H](CCC(=O)O)NC(=O)[C@H](CCCCNC(=O)COCCOCCNC(=O)COCCOCCNC(=O)CC[C@H](NC(=O)CCCCCCCCCCCCCCCCCCC(=O)O)C(=O)O)NC(=O)[C@H](C)NC(=O)[C@H](CCCCN)NC(=O)[C@H](CCCNC(=N)N)NC(=O)[C@H](CCC(=O)O)NC(=O)[C@H](CCC(=O)O)NC(=O)[C@H](CC(C)C)NC(=O)[C@H](Cc1ccc(O)cc1)NC(=O)[C@H](CCCCN)NC(=O)[C@H](CO)NC(=O)[C@H](Cc1ccc(O)cc1)NC(=O)[C@H](CC(=O)O)NC(=O)[C@H](CO)NC(=O)[C@@H](NC(=O)[C@H](Cc1ccccc1)NC(=O)[C@@H](NC(=O)CNC(=O)[C@H](CCC(N)=O)NC(=O)C(C)(C)NC(=O)[C@@H](N)Cc1c[nH]cn1)[C@@H](C)O)[C@@H](C)O)C(=O)N[C@@H](C)C(=O)N[C@@H](Cc1c[nH]c2ccccc12)C(=O)N[C@@H](CC(C)C)C(=O)N[C@@H](CCC(=O)O)C(=O)NCC(=O)NCC(=O)N1CCC[C@H]1C(=O)N[C@@H](CO)C(=O)N[C@@H](CO)C(=O)NCC(N)=O` [Compound 68] (H-H[Aib]QGTFTSDYSKYLEERKAK([AEEA-AEEA-γGlu-C20 diacid])EFIAWLEGGPSSG-NH2; N-terminus assumed): 0.314 nM.
As to `CC(C)C[C@H](NC(=O)[C@H](Cc1c[nH]c2ccccc12)NC(=O)[C@H](C)NC(=O)[C@@H](NC(=O)[C@H](Cc1ccccc1)NC(=O)[C@H](CCC(=O)O)NC(=O)[C@H](CCCCNC(=O)COCCOCCNC(=O)COCCOCCNC(=O)CC[C@H](NC(=O)CCCCCCCCCCCCCCCCC(=O)O)C(=O)O)NC(=O)[C@H](C)NC(=O)[C@H](CCCNC(=N)N)NC(=O)[C@H](CCCCN)NC(=O)[C@H](CCC(=O)O)NC(=O)[C@H](CCC(=O)O)NC(=O)[C@H](CC(C)C)NC(=O)[C@H](Cc1ccc(O)cc1)NC(=O)[C@H](CCCCN)NC(=O)[C@H](CO)NC(=O)[C@H](Cc1ccc(O)cc1)NC(=O)[C@H](CC(=O)O)NC(=O)[C@H](CO)NC(=O)[C@@H](NC(=O)[C@H](Cc1ccccc1)NC(=O)[C@@H](NC(=O)CNC(=O)[C@H](CCC(N)=O)NC(=O)C(C)(C)NC(=O)[C@@H](N)Cc1c[nH]cn1)[C@@H](C)O)[C@@H](C)O)C(C)C)C(=O)N[C@@H](CCC(=O)O)C(=O)NCC(=O)NCC(=O)N1CCC[C@H]1C(=O)N[C@@H](CO)C(=O)N[C@@H](CO)C(=O)NCC(N)=O` [Compound 74] (H-H[Aib]QGTFTSDYSKYLEEKRAK([AEEA-AEEA-γGlu-C18 diacid])EFVAWLEGGPSSG-NH2; N-terminus assumed), the EC50 is 0.725 nM.
The result for `CCCCCCCCCCCCCCCC(=O)N[C@@H](CCC(=O)N[C@@H](CCC(=O)NCCCC[C@H](NC(=O)[C@H](C)NC(=O)[C@H](CCCNC(=N)N)NC(=O)[C@H](CCCCN)NC(=O)[C@H](CCC(=O)O)NC(=O)[C@H](CCC(=O)O)NC(=O)[C@H](CC(C)C)NC(=O)[C@H](Cc1ccc(O)cc1)NC(=O)[C@H](CCCCN)NC(=O)[C@H](CO)NC(=O)[C@H](Cc1ccc(O)cc1)NC(=O)[C@H](CC(=O)O)NC(=O)[C@H](CO)NC(=O)[C@@H](NC(=O)[C@H](Cc1ccccc1)NC(=O)[C@@H](NC(=O)CNC(=O)[C@H](CCC(N)=O)NC(=O)C(C)(C)NC(=O)[C@@H](N)Cc1c[nH]cn1)[C@@H](C)O)[C@@H](C)O)C(=O)N[C@@H](CCC(=O)O)C(=O)N[C@@H](Cc1ccccc1)C(=O)N[C@H](C(=O)N[C@@H](CCC(=O)O)C(=O)N[C@@H](Cc1c[nH]c2ccccc12)C(=O)N[C@@H](CC(C)C)C(=O)N[C@@H](CCC(=O)O)C(=O)NCC(=O)NCC(=O)N1CCC[C@H]1C(=O)N[C@@H](CO)C(=O)N[C@@H](CO)C(=O)NCC(N)=O)C(C)C)C(=O)O)C(=O)O` [Compound 76] (HELM PEPTIDE1{H.[Aib].Q.G.T.F.T.S.D.Y.S.K.Y.L.E.E.K.R.A.K.E.F.V.E.W.L.E.G.G.P.S.S.G.[am]}|PEPTIDE2{[CCCCCCCCCCCCCCCC(=O)[*:2]].[gGlu].[gGlu]}$PEPTIDE1,PEPTIDE2,20:R3-3:R2$$$V2.0; N-terminus assumed) reads 0.191 nM.
On to `CC[C@H](C)[C@H](NC(=O)[C@H](Cc1ccccc1)NC(=O)[C@H](CCC(=O)O)NC(=O)[C@H](CCCCN)NC(=O)[C@H](C)NC(=O)[C@H](C)NC(=O)[C@H](CCCNC(=N)N)NC(=O)[C@H](CCC(=O)O)NC(=O)[C@H](CC(=O)O)NC(=O)[C@H](CC(C)C)NC(=O)[C@H](Cc1ccc(O)cc1)NC(=O)[C@H](CCCCN)NC(=O)[C@H](CO)NC(=O)[C@H](CCCCNC(=O)COCCOCCNC(=O)COCCOCCNC(=O)CC[C@H](NC(=O)CCCCCCCCCCCCCCCCC(=O)O)C(=O)O)NC(=O)[C@H](CC(=O)O)NC(=O)[C@H](CO)NC(=O)[C@@H](NC(=O)[C@H](Cc1ccccc1)NC(=O)[C@@H](NC(=O)CNC(=O)[C@H](CCC(N)=O)NC(=O)[C@H](CO)NC(=O)[C@@H](N)Cc1c[nH]cn1)[C@@H](C)O)[C@@H](C)O)C(=O)N[C@@H](C)C(=O)N[C@@H](Cc1c[nH]c2ccccc12)C(=O)N[C@@H](CC(C)C)C(=O)N[C@@H](CCC(=O)O)C(=O)N[C@@H](C)C(=O)NCC(=O)NCC(=O)N1CCC[C@H]1C(=O)N[C@@H](CO)C(=O)N[C@@H](CO)C(=O)NCC(N)=O` [Compound 79] (H-HSQGTFTSDK([AEEA-AEEA-γGlu-C18 diacid])SKYLDERAAKEFIAWLEAGGPSSG-NH2; N-terminus assumed), for which the EC50 stood at 0.025 nM.

The values are drawn from patent US12257287B2, “Glucagon-derived peptide and use thereof” (Tianjin Institute of Pharmaceutical Research Co., Ltd., priority 2018, dated 2025).
